Source: publication PMC5654082 (Malaria Journal, 2017)
Structures can show the parent of a compound that is named as a salt. Marks after values point to notes of the source that are not given here.

Columns and labels:
[1] = Thai children with uncomplicated multidrug-resistant falciparum malaria; (geometric) mean or median; cited from earlier work
MATE1 = biological target: T1, MATE1 (Homo sapiens, UniProt Q96FL8); test: Export assay in HEK293 cells co-transduced with OCT1 and MATE1; type: cell-based; parameters: host or cells: HEK293, baculovirus transduction (CMV promoter), transient; co-transduced with human OCT1 in the export assay; conditions: cells expressing OCT1 and MATE1; 1 µM, 1 min, pH 7.4
T1 sequence (Q96FL8 1-570): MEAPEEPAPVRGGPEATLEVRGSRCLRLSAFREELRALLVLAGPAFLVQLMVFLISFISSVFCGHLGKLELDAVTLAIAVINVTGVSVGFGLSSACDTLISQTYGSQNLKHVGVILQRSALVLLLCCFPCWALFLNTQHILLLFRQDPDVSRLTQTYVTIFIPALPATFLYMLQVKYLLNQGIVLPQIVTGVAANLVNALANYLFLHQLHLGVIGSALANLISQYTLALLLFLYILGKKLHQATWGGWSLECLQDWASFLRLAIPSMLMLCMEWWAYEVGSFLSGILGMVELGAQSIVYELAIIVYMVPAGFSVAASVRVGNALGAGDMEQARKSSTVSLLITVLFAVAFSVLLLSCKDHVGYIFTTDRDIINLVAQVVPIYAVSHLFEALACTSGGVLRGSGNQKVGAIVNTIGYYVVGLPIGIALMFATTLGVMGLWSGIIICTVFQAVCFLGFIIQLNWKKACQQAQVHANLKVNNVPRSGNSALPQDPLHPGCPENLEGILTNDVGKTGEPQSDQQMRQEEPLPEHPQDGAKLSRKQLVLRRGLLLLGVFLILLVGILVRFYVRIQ
Procedure: HEK293 cells were modified to transiently express (a combination of) human OCT1, OCT2, MATE1, MATE2-K, or eYFP. Briefly, cDNA of the respective genes was cloned downstream of a CMV promoter into a baculovirus, of which passage three was used to transduce HEK293 cells. These cells were seeded in poly-D-lysine coated 24- or 96-wells plates and grown in a 37 °C incubator at 5% CO2. Growth was initiated at ~ 25% confluency using 375 or 125 μL cell and complete medium (DMEM + GlutaMAX™-I supplemented with 10% fetal bovine serum) suspension per well, respectively. […]
Import and export of PG and cycloguanil (CG) was assessed by single and double transduced HEK293 cells. […] Significant reduction in uptake (i.e. export by MATEs) was determined using ln transformation and a one-way repeated measures ANOVA with Dunnet’s post test.
(§1) Anti-malarial concentration in the cell lysates was quantified using an LC–MS/MS system consisting of a UPLC, a binary solvent manager, a vacuum degasser and an autosampler, coupled to a Xevo TQ-S micro triple quadrupole mass spectrometer. […] Positive ion mode was used with selected reaction monitoring (SRM) for the quantitative analysis of AMO, ART, ATO, CQ, CG, DHA, LUM, MQ, PQ, PG, and QN. The peak area of the most abundant product ion was used for quantification.

MATE2-K = MATE2-K (Homo sapiens, UniProt Q86VL8); test: Export assay in HEK293 cells co-transduced with OCT1 and MATE2-K; type: cell-based; parameters: host or cells: HEK293, baculovirus transduction (CMV promoter), transient; co-transduced with human OCT1 in the export assay
Procedure: HEK293 cells were modified to transiently express (a combination of) human OCT1, OCT2, MATE1, MATE2-K, or eYFP. Briefly, cDNA of the respective genes was cloned downstream of a CMV promoter into a baculovirus, of which passage three was used to transduce HEK293 cells. These cells were seeded in poly-D-lysine coated 24- or 96-wells plates and grown in a 37 °C incubator at 5% CO2. Growth was initiated at ~ 25% confluency using 375 or 125 μL cell and complete medium (DMEM + GlutaMAX™-I supplemented with 10% fetal bovine serum) suspension per well, respectively. After 24 h, cells were transduced with 30 µL virus (10 µL virus + 20 µL complete medium in case of 96-wells plates) or 2 × 15 µL virus for cells that required simultaneous expression of two transporters. Finally, 195 µL sodium butyrate (45 µL for 96-wells plates) was added to a final concentration of 2 mM to enhance protein expression.
Import and export of PG and cycloguanil (CG) was assessed by single and double transduced HEK293 cells. In short, HEK293 cells seeded in 24-wells plates as described, were transduced separately with eYFP, OCT1, OCT2, MATE1 or MATE2-K, or with combinations of these viruses. Following the same procedure as for the cellular import assay described above, the import of 100 µM PG and CG was measured after 5 min incubation and data was plotted as mean pmol/mg/min ± SEM. For export (following OCT1 uptake) of 1 µM PG after 1 min of transport at pH 7.4, percentage of remaining cellular PG (compared to background) was plotted as mean ± SEM in GraphPad version 5.03. Significant reduction in uptake (i.e. export by MATEs) was determined using ln transformation and a one-way repeated measures ANOVA with Dunnet’s post test.
as §1, with “spectrometer. Liquid chromatographic separation of the samples (stored at 10 °C; injection volume of 10 µL) was performed at 40 °C using a HSS T3 analytical column (1.8 μm; 100 × 2.1 mm) coupled to a VanGuard HSS T3 pre-column (1.8 µm; 5 × 2.1 mm).” for “spectrometer.”

Sequence of MATE2-K (Q86VL8 1-566 isoform Q86VL8-3): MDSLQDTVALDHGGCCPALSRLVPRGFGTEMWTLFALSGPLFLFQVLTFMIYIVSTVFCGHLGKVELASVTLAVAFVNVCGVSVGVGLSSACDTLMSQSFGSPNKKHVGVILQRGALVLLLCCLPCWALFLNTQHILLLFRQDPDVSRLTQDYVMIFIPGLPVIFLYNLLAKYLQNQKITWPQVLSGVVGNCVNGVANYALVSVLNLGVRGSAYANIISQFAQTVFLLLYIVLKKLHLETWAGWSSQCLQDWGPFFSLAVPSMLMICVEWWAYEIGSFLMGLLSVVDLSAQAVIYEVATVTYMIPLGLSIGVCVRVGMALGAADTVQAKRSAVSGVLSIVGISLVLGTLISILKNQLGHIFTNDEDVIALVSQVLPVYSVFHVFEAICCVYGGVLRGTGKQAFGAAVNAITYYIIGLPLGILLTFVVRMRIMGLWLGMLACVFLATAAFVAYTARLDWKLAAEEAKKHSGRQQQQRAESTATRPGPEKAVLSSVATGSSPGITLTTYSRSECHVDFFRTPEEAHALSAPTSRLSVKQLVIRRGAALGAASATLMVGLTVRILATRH

## [H]/N=C(\N/C(=N/[H])Nc1ccc(Cl)cc1)NC(C)C [Proguanil, proguanil hydrochloride]
[1]
  Cmax: 306^d [47] ng/mL
MATE1
  Uptake, percentage of eYFP control cells: 780 ± 70%
MATE2-K; MATE2-K co-transduced with OCT1
  Intracellular concentration, percentage of its initial value: 56%
MATE2-K; OCT1/MATE2-K versus eYFP/OCT1 cells, 1 µM, 1 min
  Relative decrease in uptake by MATE2-K: 44%
MATE2-K; cells expressing OCT1 and MATE2-K, 1 µM, 1 min, pH 7.4
  Uptake, percentage of eYFP control cells: 470 ± 80%
MATE2-K; compared to eYFP/OCT1 transduced cells, 1 µM, 1 min
  Fraction exported by MATE2-K: approximately 50%
